The text below walks through data of patent US11426406B2, “Compositions and methods for treating lysosomal storage disorders” (GEORGETOWN UNIVERSITY, priority 2017, dated 2022).

Common to all, as to format: in vivo
For experiment [1], the system named is male Sgsh transgenic mice (MPS). In words: Post-treatment rotarod test in MPS mice (Sanfilippo A model). The conditions noted are these: daily I.P. 21 days, nilotinib 10 mg/kg, bosutinib 5 mg/kg, vs DMSO and non-TG controls, FIG. 3. The method, then: (§1) Twelve 8-9 month old, male Sgsh transgenic mice (MPS) were used for all experiments and were compared to fourteen non-transgenic age-matched, littermates (non-TG). […] Treatment lasted for 21 days. At the end of the treatment period the mice underwent behavioral testing again and Western blot analysis was performed.
Rotarod: Mice were placed on the rotarod apparatus which sped up to 50 rpm, over the course of 5 minutes for 3-5 trials, with a minimum of 30 minutes rest between trials. Data collected were the time the animal remained ambulatory on the rotating rod, in seconds, labelled “latency to fall.” Data is also presented as “percentage difference” where all groups are normalized to the non-transgenic, untreated group, assuming non-transgenic, untreated animals are preforming at 100%.
(§2) Post-treatment rotarod MPS versus non-TG littermate mice: After the behavioral tests were conducted the symptomatic MPS mice were divided into three groups (n=4). […] There were three control groups made of age matched non-TG littermate controls (n=4, 5) which were treated in the same way. Behavioral tests were repeated and data collected is referred to as “post-treatment.” Since there was no significant difference between the control non-TG treatment groups, they were combined into one non-TG control group.
In general terms: In the rotarod test animals must keep their balance on a rotating rod.

Experiment [2] has the same test system. The experiment can be described thus: Open-field locomotion test in MPS mice (Sanfilippo A model). The conditions noted are these: daily I.P. 21 days, nilotinib 10 mg/kg, bosutinib 5 mg/kg, FIG. 2C. The method, then:
as §1
Open-field Locomotion: Mice were placed in the open field arena for 60 minutes. Animals were tracked by photocell beams along the arena floor. Data were collected and analyzed for total locomotion via total cm travelled. Other data collected were the total time spent moving ‘total ambulatory time’ (sec) during the 60 minute trial and the average velocity (cm/sec) during the 60 minute trial.
as §2

For experiment [3] the test system is unchanged. The experiment can be described thus: Open-field anxiety test in MPS mice (Sanfilippo A model). The following applies: daily I.P. 21 days, nilotinib 10 mg/kg, bosutinib 5 mg/kg, 5 minute trial, FIG. 2C.
Description: Open-field Anxiety: Mice were placed in the open field arena for 5 minutes. Animals were tracked by photocell beams along the arena floor. Data were collected and analyzed for the number of entries into the center zone of the arena, the total distance (cm) traveled within the center zone, the amount of time (sec) spent in the center zone, the total distance traveled (cm) in the peripheral wall zone of the arena, the amount of time spent (sec) in the wall zone, the total distance traveled (cm) during the 5 minute trial, the total time spent moving ‘total ambulatory time’ (sec) during the 5 minute trial, and the average velocity (cm/sec) during the 5 minute trial.

Molecules are shown by their SMILES.

Regarding `Cc1cn(-c2cc(NC(=O)c3ccc(C)c(Nc4nccc(-c5cccnc5)n4)c3)cc(C(F)(F)F)c2)cn1` [nilotinib], in experiment [1], the “rotarod performance (latency to fall), post-treatment” value was “perform better than the MPS mice treated with DMSO or bosutinib, and look more like the non-TG controls”. The “overall locomotion activity, open field” value in experiment [2] was “increased the overall locomotion (p<0.05) activity”. The “anxiety (entries into center zone), open field” value in experiment [3] is “reduced anxiety (more entries into center zone, p<0.05)”.
